From ChEMBL document CHEMBL5465560, “Selectivity Literature for EUbOPEN Chemogenomic Library” (2024)

Columns and labels:
[1] = target: Ribosomal protein S6 kinase alpha-4 (Homo sapiens) (UniProt O75676); conditions: at 10 µM
[2] = target: Serine/threonine-protein kinase Nek7 (Homo sapiens) (UniProt Q8TDX7); test: Selectivity interaction (KinomeScan (DiscoverX)) EUB0001049a NEK7; conditions: at 1 µM
[3] = target: TRAF2 and NCK-interacting protein kinase (Homo sapiens) (UniProt Q9UKE5); test: Selectivity interaction (LanthaScreen Eu Kinase Binding Assay) EUB0001632a TNIK; conditions: at 10 µM
[4] = target: Platelet-derived growth factor receptor beta (Homo sapiens, UniProt P09619); test: Selectivity interaction (Kinase panel (Z-LYTE Assay)) EUB0001632a PDGFRB; conditions: at 10 µM
[5] = target: Serine/threonine-protein kinase MARK1 (Homo sapiens) (UniProt Q9P0L2); test: Selectivity interaction (KinomeScan (DiscoverX)) EUB0000695a MARK1; conditions: at 100 nM
Chain of Serine/threonine-protein kinase MARK1 (Homo sapiens) (Q9P0L2 whole entry, looked up): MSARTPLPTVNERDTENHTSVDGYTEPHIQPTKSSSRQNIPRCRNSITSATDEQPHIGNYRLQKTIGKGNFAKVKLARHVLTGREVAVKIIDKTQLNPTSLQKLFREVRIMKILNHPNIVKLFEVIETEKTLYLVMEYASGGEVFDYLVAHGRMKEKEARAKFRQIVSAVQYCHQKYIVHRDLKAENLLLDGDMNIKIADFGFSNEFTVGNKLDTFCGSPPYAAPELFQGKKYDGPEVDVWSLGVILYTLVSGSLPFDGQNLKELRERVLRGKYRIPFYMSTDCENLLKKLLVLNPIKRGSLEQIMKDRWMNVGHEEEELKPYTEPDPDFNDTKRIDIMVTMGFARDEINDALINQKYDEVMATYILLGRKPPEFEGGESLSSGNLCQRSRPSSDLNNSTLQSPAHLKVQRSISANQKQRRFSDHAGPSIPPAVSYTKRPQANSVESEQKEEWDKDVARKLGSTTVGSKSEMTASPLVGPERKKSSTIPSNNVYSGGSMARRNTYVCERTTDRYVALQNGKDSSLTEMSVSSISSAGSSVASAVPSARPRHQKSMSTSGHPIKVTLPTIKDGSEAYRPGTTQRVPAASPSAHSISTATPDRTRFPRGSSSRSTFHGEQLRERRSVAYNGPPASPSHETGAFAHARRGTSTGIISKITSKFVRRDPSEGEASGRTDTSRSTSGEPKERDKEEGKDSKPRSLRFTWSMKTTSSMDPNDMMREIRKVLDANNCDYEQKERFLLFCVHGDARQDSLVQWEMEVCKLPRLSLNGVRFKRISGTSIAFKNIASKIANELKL

[6] = test system: Proto-oncogene tyrosine-protein kinase receptor Ret (Homo sapiens), P07949 [V804M]; test: (§1) Selectivity interaction (KinomeScan (DiscoverX)) EUB0000695a RET; conditions: at 100 nM
[7] = test system: Proto-oncogene tyrosine-protein kinase receptor Ret (Homo sapiens), P07949 [M918T]; test: as §1; conditions: at 100 nM
Chain of Proto-oncogene tyrosine-protein kinase receptor Ret (Homo sapiens), P07949 [M918T] (P07949 whole entry M918T): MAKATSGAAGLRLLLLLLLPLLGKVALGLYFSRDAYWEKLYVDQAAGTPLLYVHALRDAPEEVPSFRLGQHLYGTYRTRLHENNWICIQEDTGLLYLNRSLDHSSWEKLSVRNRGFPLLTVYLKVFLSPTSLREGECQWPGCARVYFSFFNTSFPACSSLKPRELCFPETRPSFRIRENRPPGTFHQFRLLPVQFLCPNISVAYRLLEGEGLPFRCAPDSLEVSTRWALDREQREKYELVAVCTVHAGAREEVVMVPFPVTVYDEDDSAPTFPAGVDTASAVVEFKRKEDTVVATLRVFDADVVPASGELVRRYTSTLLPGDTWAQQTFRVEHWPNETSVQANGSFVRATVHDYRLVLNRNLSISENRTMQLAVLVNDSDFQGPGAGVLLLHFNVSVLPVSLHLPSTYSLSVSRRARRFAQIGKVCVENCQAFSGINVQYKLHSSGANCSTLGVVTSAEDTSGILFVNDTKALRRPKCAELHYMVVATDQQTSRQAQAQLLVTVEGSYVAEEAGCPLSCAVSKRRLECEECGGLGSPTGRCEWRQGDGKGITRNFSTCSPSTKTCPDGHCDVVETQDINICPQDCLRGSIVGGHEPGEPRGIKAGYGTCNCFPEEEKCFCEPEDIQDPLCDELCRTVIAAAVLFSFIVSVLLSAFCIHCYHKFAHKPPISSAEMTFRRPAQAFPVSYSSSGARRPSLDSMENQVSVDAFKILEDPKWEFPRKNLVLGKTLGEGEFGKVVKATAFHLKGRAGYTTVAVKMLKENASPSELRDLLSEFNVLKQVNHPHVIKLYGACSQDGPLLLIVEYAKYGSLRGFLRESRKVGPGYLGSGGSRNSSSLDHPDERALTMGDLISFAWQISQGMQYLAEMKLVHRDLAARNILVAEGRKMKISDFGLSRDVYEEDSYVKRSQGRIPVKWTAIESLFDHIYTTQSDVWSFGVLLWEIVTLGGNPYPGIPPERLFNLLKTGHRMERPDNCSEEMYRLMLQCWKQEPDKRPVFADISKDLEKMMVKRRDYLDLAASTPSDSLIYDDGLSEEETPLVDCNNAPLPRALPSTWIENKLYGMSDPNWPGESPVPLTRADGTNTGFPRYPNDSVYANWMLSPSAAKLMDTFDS

[8] = test system: Proto-oncogene tyrosine-protein kinase receptor Ret (Homo sapiens), P07949 [V804L]; test: as §1; conditions: at 100 nM
[9] = target: Proto-oncogene tyrosine-protein kinase receptor Ret (Homo sapiens, UniProt P07949); test: as §1; conditions: at 100 nM
[10] = target: Cyclin-dependent kinase 8 (Homo sapiens, UniProt P49336); conditions: at 10 µM
[11] = target: Mitogen-activated protein kinase 10 (Homo sapiens, UniProt P53779); test: Selectivity interaction (Kinase panel (enzymatic assay)) EUB0000595a MAPK10
[12] = target: T1, Serine/threonine-protein kinase DCLK2 (Homo sapiens) (UniProt Q8N568); test: Selectivity interaction (KinomeScan (DiscoverX)) EUB0001079a DCLK2; conditions: at 1 µM
T1 sequence (whole entry): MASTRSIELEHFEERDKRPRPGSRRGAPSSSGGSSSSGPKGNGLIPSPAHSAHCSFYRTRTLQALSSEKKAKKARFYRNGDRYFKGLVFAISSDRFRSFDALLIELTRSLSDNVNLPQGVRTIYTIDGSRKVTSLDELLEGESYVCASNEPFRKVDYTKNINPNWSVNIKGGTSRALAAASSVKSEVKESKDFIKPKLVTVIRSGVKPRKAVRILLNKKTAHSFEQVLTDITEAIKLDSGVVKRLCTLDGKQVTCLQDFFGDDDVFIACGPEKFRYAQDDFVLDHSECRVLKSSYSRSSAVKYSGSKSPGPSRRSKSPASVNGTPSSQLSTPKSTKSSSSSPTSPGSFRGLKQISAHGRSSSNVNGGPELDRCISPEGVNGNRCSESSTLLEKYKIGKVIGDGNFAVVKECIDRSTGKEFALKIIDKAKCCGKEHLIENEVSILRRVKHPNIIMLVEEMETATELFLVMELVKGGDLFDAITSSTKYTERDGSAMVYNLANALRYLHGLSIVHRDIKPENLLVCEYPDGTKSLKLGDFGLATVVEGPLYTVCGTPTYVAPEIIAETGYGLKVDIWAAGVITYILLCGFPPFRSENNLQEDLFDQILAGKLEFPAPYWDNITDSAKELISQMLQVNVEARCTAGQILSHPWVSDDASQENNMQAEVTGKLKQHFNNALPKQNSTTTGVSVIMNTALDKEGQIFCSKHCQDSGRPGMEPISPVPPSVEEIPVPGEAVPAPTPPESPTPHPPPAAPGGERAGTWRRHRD

[13] = target: Serine/threonine-protein kinase 25 (Homo sapiens) (UniProt O00506); test: Selectivity interaction (KinomeScan (DiscoverX)) EUB0000655a STK25; conditions: at 10 µM
Chain of Serine/threonine-protein kinase 25 (Homo sapiens) (O00506 whole entry, looked up): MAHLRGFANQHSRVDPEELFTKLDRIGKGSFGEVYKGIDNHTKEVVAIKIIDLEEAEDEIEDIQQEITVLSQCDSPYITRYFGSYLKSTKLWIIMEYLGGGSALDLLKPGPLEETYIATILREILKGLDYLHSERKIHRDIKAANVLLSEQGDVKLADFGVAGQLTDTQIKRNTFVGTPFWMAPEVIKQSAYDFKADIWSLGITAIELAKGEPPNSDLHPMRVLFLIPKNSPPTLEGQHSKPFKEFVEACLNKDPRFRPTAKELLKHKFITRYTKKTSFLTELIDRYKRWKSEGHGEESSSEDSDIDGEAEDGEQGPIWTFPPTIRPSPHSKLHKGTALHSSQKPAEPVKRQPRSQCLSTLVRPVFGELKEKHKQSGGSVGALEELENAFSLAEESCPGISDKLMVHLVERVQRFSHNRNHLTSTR

[14] = target: Mitogen-activated protein kinase 11 (Homo sapiens) (UniProt Q15759); test: Selectivity interaction (KinomeScan (DiscoverX)) EUB0000655a MAPK11; conditions: at 10 µM
Chain of Mitogen-activated protein kinase 11 (Homo sapiens) (Q15759 whole entry): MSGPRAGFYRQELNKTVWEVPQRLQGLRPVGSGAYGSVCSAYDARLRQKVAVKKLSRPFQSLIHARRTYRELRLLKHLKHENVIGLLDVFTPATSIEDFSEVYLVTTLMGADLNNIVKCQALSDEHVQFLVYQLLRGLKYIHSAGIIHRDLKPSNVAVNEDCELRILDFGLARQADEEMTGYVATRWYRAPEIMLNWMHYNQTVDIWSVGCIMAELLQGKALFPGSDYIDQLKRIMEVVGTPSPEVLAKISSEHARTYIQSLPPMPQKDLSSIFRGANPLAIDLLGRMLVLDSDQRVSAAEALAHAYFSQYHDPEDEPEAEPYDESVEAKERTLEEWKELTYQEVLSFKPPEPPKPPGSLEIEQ

[15] = target: Cyclin-dependent kinase 13 (Homo sapiens, UniProt Q14004); test: Selectivity interaction (KinomeScan (DiscoverX)) EUB0001619a CDK13; conditions: at 1 µM
Chain of Cyclin-dependent kinase 13 (Q14004 whole entry, looked up): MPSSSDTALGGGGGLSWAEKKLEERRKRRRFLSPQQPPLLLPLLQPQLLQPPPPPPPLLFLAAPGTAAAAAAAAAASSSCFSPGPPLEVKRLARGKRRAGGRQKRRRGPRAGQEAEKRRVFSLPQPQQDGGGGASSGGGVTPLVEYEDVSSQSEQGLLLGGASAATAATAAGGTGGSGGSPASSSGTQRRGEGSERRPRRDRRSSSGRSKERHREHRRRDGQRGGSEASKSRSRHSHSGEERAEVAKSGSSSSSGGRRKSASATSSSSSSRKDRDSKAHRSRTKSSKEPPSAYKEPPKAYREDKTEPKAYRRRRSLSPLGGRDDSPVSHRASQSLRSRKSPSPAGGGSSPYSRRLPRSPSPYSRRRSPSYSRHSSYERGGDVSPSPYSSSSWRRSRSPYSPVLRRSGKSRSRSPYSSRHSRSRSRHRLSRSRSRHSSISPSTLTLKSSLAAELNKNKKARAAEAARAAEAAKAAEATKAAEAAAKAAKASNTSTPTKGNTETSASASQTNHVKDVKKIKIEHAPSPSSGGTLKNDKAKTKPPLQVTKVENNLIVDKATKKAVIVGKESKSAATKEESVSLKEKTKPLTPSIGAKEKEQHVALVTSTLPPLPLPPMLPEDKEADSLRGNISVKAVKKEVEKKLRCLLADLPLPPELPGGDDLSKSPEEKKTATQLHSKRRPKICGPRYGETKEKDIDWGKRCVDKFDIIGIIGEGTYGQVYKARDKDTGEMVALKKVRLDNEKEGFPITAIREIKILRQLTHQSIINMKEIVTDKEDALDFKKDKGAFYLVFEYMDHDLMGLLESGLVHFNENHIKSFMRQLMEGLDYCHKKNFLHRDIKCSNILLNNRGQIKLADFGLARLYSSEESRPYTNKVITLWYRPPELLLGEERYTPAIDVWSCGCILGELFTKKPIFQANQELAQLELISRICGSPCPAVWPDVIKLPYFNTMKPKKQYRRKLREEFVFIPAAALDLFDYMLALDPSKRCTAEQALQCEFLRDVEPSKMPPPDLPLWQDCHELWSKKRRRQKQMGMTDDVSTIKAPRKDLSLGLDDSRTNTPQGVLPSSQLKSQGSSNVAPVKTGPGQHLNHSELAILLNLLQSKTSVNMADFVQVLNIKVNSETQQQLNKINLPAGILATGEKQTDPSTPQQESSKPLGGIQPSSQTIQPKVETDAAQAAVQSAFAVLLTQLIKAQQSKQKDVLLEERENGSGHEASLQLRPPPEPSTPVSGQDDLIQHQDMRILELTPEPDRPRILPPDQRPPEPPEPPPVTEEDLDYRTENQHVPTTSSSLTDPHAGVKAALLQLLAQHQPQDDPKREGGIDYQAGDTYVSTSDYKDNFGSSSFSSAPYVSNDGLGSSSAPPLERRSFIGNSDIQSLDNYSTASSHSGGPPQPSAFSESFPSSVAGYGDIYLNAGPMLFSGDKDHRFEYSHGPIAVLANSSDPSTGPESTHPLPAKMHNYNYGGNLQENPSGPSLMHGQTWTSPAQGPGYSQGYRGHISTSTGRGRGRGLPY

[16] = target: MAP kinase-activated protein kinase 3 (Homo sapiens) (UniProt Q16644); test: Selectivity interaction (SelectScreen profiling (Invitrogen)) EUB0000607a MAPKAPK3; conditions: at 2 µM
Chain of MAP kinase-activated protein kinase 3 (Homo sapiens) (Q16644 whole entry, looked up): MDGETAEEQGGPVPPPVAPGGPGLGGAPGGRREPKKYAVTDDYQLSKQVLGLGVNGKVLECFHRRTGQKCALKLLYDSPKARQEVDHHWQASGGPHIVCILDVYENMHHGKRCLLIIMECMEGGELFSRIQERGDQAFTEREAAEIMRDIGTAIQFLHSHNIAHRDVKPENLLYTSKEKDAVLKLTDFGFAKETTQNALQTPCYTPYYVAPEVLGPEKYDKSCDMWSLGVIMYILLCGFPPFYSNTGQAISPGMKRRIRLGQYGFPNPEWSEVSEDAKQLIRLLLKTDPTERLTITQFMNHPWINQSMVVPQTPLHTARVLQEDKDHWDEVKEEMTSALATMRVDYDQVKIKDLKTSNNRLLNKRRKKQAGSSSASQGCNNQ

[17] = Selectivity interaction (KinomeScan (DiscoverX)) EUB0000607a CDPK1; conditions: at 10 µM
[18] = target: T2, Cyclin-dependent kinase-like 5 (Homo sapiens) (UniProt O76039); test: Selectivity interaction (KinomeScan (DiscoverX)) EUB0000666a CDKL5; conditions: at 10 µM
T2 sequence (whole entry): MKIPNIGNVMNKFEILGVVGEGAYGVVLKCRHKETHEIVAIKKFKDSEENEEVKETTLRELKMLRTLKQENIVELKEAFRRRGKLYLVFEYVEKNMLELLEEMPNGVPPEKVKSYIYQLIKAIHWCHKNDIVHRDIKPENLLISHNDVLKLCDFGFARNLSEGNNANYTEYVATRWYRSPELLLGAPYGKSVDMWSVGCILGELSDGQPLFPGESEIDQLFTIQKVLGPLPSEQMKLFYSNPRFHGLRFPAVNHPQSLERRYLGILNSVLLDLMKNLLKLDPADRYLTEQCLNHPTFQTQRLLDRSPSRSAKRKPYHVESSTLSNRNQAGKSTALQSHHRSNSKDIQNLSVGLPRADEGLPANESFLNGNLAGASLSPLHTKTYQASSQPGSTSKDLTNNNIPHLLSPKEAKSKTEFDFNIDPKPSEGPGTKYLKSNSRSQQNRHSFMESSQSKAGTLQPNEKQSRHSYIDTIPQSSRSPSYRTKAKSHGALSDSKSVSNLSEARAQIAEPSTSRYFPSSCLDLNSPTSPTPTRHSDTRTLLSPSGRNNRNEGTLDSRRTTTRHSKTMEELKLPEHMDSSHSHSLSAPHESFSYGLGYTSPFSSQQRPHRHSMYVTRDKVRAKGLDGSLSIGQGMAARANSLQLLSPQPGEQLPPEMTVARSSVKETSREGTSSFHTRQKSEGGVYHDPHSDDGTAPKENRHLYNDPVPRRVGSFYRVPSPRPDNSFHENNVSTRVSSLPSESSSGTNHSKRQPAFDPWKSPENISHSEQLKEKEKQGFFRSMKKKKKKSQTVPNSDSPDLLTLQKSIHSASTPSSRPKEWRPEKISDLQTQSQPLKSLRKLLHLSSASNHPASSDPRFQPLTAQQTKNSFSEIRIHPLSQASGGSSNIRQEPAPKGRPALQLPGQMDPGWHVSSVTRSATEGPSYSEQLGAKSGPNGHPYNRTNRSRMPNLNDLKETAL

[19] = target: ALK tyrosine kinase receptor (Homo sapiens, UniProt Q9UM73); test: Selectivity interaction (KinomeScan (DiscoverX)) EUB0000666a ALK; conditions: at 10 µM
[20] = target: Serine/threonine-protein kinase PAK 3 (Homo sapiens) (UniProt O75914); test: Selectivity interaction (KinomeScan (DiscoverX)) EUB0000666a PAK3; conditions: at 10 µM

Chain of Serine/threonine-protein kinase Nek7 (Homo sapiens) (Q8TDX7 whole entry, looked up): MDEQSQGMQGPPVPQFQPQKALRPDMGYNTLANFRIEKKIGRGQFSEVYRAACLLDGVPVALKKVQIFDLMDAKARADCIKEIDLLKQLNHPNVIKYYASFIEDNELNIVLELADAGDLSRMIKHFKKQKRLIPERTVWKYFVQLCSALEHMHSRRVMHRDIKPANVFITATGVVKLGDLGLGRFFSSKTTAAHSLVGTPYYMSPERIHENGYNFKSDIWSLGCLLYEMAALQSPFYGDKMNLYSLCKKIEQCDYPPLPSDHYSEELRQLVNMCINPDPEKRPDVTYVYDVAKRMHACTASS

Cc1cc([C@@H](C)Nc2ccccc2C(=O)O)c2nc(N3CCOCC3)cc(=O)n2c1 [AZD-6482]
% of control [1]: 94%

COc1cc(Nc2nc(C)cc(-c3cnn4nc(OC)ccc34)n2)cc(C(F)(F)F)c1
% of control [2]: 83%

Cn1cc(-n2cnc3c(NCc4nc5cc(Cl)c(Cl)cc5[nH]4)nc(N4CCOCC4)nc32)cn1
% of inhibition [3]: -13.9% | % of control [4]: 12.7%

Cc1cc(F)c(C(=O)Nc2cccc(-c3nncn3C(C)C)n2)cc1-n1cnc(C2CC2)c1
% of control [5]: 100% | % of control [6]: 98% | % of control [7]: 100% | % of control [8]: 100% | % of control [9]: 96%

COCC(=O)NC/C=C/c1ccc2ncnc(Nc3ccc(Oc4ccc(C)nc4)c(C)c3)c2c1 [CP-724714]
% of control [10]: 3% | IC50 [11]: > 10 µM

Nc1cnc(N2CCc3cc(S(=O)(=O)Nc4c(F)cc(Cl)cc4F)cc(N4CCCC4=O)c32)nc1 [TP-020n]
% of control [12]: 100%

CN(C)CCOc1ccc(-c2nc(-c3ccncc3)c(-c3ccc4c(c3)CC/C4=N\O)[nH]2)cc1
% of control [13]: 100% | % of control [14]: 91%

N#Cc1cccc(-c2c[nH]c3ncnc(N4CCOCC4)c23)c1
% of control [15]: 100%

CNC(=O)Nc1ccc(-c2nc(N3CC4CCC(C3)O4)c3cnn(C4CCC5(CC4)OCCO5)c3n2)cc1
% of inhibition [16]: 1% | % of control [17]: 86%

O=C(NOC[C@H](O)CO)c1ccc(F)c(F)c1Nc1ccc(I)cc1F
% of control [18]: 67% | % of control [19]: 100% | % of control [20]: 100%
